Source: patent US9775819B2, “Oral solid dosage form containing nanoparticles and process of formulating the same using fish gelatin” (R.P. SCHERER TECHNOLOGIES, LLC, priority 2009, dated 2017)

experiment: Particle size (d50) by laser light diffraction, Malvern Mastersizer 2000; format: physicochemical; conditions: unmilled active ingredient
Text: During step (a) of the method of the invention, the suspension may be recycled if necessary and the process of particle size reduction continued until the desired nanoparticle size of the active ingredient is obtained. The size of the nanoparticles within the nanosuspension is typically measured using well known techniques, such as laser light diffraction methodology using, e.g., a Malvern Mastersizer 2000 particle size analyzer (Malvern Instruments, Westborough Mass.). Particle size measurements are typically described using parameters such as d50, a parameter that represents the size above and below which one finds 50% of the volume of all particles, also known as the volume weighted median. Accordingly, d50 represents a median particle size value. According to the invention, the solution is milled until a d50 ranging preferably from about 1 nm to about 900 nm, more preferably from about 10 nm to about 800 nm, and most preferably from about 50 nm to about 700 nm is achieved.
An oral solid dosage form comprising the active ingredient naproxen and excipients fish gelatin as nanostabilizer (SMW fish gelatin grade from Norland Products Inc.—Example 1A; and DFG grade from Norland Products Inc.—Example 1B) and mannitol as bulking agent was prepared. An aqueous solution of 5% fish gelatin and 3% mannitol was prepared; then naproxen was added to this solution to form a suspension slurry. The suspension slurry was charged into a 600 cc chamber-size Dyno® Mill containing zirconium milling media. Naproxen concentration in the milling slurry was 15% by weight. Milling was performed on recirculating suspension for 1.5 hours using the default milling conditions for this equipment. The resultant bulk nanosuspension was discharged from the mill, and 250 mg unit doses were accurately dispensed into 0.25 mL capacity blister pockets using an IVEK pump controlled using a Digispense unit. Blister pockets were frozen in an Air Products CM2000 freezer using liquid nitrogen as coolant and a 3 minute freezing time, then held in a freezer until transfer to pre-cooled freeze-drier shelves. […]

Row | d50 | Structure (SMILES)
1 | 37 μm | COc1ccc2c(c1)c(CC(=O)O)c(C)n2C(=O)c1ccc(Cl)cc1 [indomethacin]
2 | 22 μm | COc1ccc2cc([C@H](C)C(=O)O)ccc2c1 [naproxen]
3 | 83 μm | CCOc1ccc(NC(C)=O)cc1 [phenacetin]
